Experimental data: US4784988A, “Peptides correlated to lysozyme” (Spa Societa' Prodotti Antibiotici S.p.A., priority 1985, dated 1988)
Where no end group is shown, it is not given here.

Key:
[1] = format: physicochemical
Experimental: Having obtained the desired peptide sequence, it is then necessary to proceed with the splitting from the solid support and deprotection of the residual functional groups, which is carried out by action of gaseous hydrobromic acid on the peptide-resin suspension, working in trifluoroacetic acid and in presence of adequate quantities of anisole.

hyperalgesia of the paw = test: Randall-Selitto test, painful threshold on compression of the paw made hyperalgesic with brewer's yeast; format: in vivo, rats; settings: rat, brewer's yeast 10 mg/rat, product injected in the paw, after 3 hours, vs irritant alone
Text: With regard to the biological activity of the peptide mixtures obtained by enzymatic hydrolysis of lysozyme, like many of the peptides isolated at the pure state and/or reproduced through synthesis, it is observed, as previously reported, that they lack the bacteriolytic activity typical of the integral lysozyme structure, whereas they present important pharmacological and therapeutic properties. It was therefore possible for example to evidence a marked analgesic activity of numerous peptides, by testing their anti-nociceptive effects on laboratory animals using the well-known Randall-Selitto method.
In groups of 5-10 rats, hyperalgesia of the paw is induced by administering an irritant agent, for example brewer's yeast (10 mg/rat), into the planter aponeurosis and at the same time injecting the product under test at different doses. One group of rats is treated with the irritant agent alone. At intervals, in particular after 3 hours, the painful threshold on compression of the edematous paw is measured, i.e. the minimum pressure (in g) causing the sudden withdrawal of the paw of the animal.
The results are expressed as percentage increase in the mean painful threshold compared to the paw treated with the algogenic agent alone (without the drug). As an example, the data relative to the peptide mixture denominated "Fraction P.2" of chromatographic origin (See Scheme 1) are reported, as well as the individual peptides (I), (II) and (III).

herpes simplex Type 1 = test: herpes simplex virus plaque formation on Vero cell monolayers; format: cell-based; settings: herpes simplex Type 1, Vero cells, 72 hours' incubation
Experimental: Yet other example, the mixture and the peptides of the present invention resulted active in an antiviral sense in numerous cases. They were submitted to various tests to verify their influence on the capacity of the herpes simplex virus to infect and form plaques on monolayer cell cultures. To this purpose, a viral strain of herpes simplex Type 1 at suitable concentration was added to monolayers of Vero cells (Flow). After being in contact for 1 hour, the virus was removed and the monolayer washed and then covered with fresh culture medium […] (Flow), adding at the end suitable quantities of the substance under test. After 72 hours' incubation, the plates were coloured with neutral red and the visible plaques counted. […] Similar results were obtained with a peptide fraction isolated in an analogous manner after hydrolysis of lysozyme with trypsin and chymotrypsin. Even more surprising results were obtained with peptides such as (I) or (III) which resulted capable of inducing analogous reductions in the viral plaque-forming units at considerably lower concentrations (0.1-1 mg/ml).

[2] = system: cell colony-forming capacity; format: cell-based

Row | Substance | solubility in water [1] | Δ% of the algogenic threshold (hyperalgesia of the paw; dose 0.5 mg/rat) [%] | Δ% of the algogenic threshold (hyperalgesia of the paw; dose 0.75 mg/rat) [%] | Δ% of the algogenic threshold (hyperalgesia of the paw; dose 1 mg/rat) [%] | concentration inducing analogous reductions in the viral plaque-forming units (herpes simplex Type 1) | cytotoxic effects (cell colony-forming capacity) [2] | Δ% of the algogenic threshold (hyperalgesia of the paw; dose 2 mg/rat) [%] | Δ% of the algogenic threshold (hyperalgesia of the paw; dose 4 mg/rat) [%] | inhibition of the viral capacity to form plaques (herpes simplex Type 1; 5 mg/ml) [%]
1 | NTDGSTDY [peptide (II)] | very soluble in water | 30 | 60 | 90 | – | – | – | – | –
2 | NTQATNR [peptide (III)] | – | – | – | 30 | 0.1-1 mg/ml | devoid of cytotoxic effects | 60 | 100 | –
3 | NTQATNRNTDGSTDY [peptide (I)] | – | – | – | – | 0.1-1 mg/ml | devoid of cytotoxic effects | 120 | – | –
4 | lysozyme: small globular protein of 129 amino acid residues extracted from hen egg-white | – | – | – | – | – | – | – | – | 75
